From EP1216701A1, “Process to increase the concentration of meiosis-activating sterols (MAS) in the cholesterol synthesis and the use of potent inhibitors in the process” (Schering Aktiengesellschaft, priority 2000, dated 2002)

How the values were obtained:
Δ24-reductase = target: T1, Δ24-reductase (Homo sapiens, UniProt Q15392); test: Δ24-reductase assay (conversion of lanosterol to dihydrolanosterol in the presence of miconazole); format: cell-based; details: HepG2 cells; conversion of lanosterol to dihydrolanosterol with added miconazole
T1 construct: endogenous in cells; host or cells: HepG2
T1 sequence (Q15392 23-516): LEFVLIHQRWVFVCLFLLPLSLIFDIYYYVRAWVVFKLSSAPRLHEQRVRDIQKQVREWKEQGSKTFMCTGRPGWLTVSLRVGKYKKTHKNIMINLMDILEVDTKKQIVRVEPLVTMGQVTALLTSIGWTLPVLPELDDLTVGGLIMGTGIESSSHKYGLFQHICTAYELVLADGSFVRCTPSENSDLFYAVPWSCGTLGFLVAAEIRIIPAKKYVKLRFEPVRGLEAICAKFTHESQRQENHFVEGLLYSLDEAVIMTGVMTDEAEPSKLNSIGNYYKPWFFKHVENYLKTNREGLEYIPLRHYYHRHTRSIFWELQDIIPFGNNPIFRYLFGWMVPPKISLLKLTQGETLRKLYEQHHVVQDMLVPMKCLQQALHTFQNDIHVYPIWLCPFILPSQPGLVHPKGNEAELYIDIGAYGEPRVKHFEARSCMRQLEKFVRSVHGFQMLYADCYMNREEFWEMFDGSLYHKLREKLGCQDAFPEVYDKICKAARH
Method: HepG2 cells were incubated for 12 h with 10 µM simvastatin (a kind gift from M. Stapff (MSD, Germany)) to deplete cholesterol precursors. Thereafter, the medium was changed to one containing 10 µM simvastatin, 10 µM miconazole (an inhibitor of 14α-demethylation) and 6 µg/dish lanosterol. After 12 h incubation, neutral sterols were extracted as described above, and the samples were monitored for lanosterol (m/z 498 (M^+) and m/z 393 (M-TMSOH-CH3)) and dihydrolanosterol (m/z 500 (M^+) and m/z 395 (M-TMSOH-CH3)) by GC/MS. Dihydrolanosterol was quantified by comparing the ratio of SIM abundances at m/z 395 and 370 (epicoprostanol) against a standard curve constructed from SIM results on mixtures of authentic dihydrolanosterol and epicoprostanol. Desmosterol was quantified analogously by SIM.

HepG2 cells = test: Accumulation of cholesterol precursors / C29-sterols (MAS) in HepG2 cells, GC/MS (SIM); format: cell-based, Human; details: for Dienol (m/z 486) / Enol T-MAS (m/z 484) / Trienol FF-MAS (m/z 482) / suppression of the Δ24 reduction step (accumulation of desmosterol) / FF-MAS Dimethylst.-trien (482 m/z) / Methylst.-dien (470 m/z) / T-MAS Dimethylst.-dien (484 m/z) / changes in the cholesterol precursor pattern: HepG2 cells; for Dienol (m/z 486) / Enol T-MAS (m/z 484) / Trienol FF-MAS (m/z 482): ± SD; for suppression of the Δ24 reduction step (accumulation of desmosterol): absence of miconazole, 10 µM potent inhibitors or 1 µM tamoxifen for 12 h; for FF-MAS Dimethylst.-trien (482 m/z) / Methylst.-dien (470 m/z) / T-MAS Dimethylst.-dien (484 m/z): bile acids 160 µM, 12-h, n=3, mean ± SD, ratio to internal standard epicoprostanol; for changes in the cholesterol precursor pattern: at 10 µM, compared to potent inhibitors, data not shown
Method: Human hepatoma HepG2 cells were cultured to confluency in 60-mm dishes in phenol-red-free Dulbecco's modified Eagle's medium (DMEM) containing Pen-Strep (100 µg/ml), glucose (10 mM), sodium bicarbonate (45 mM) and glutamine (4 mM) supplemented with 10% fetal calf serum as described previously (24). At the beginning of the experiment the medium was changed to serum-free DMEM supplemented with 10% lipid-free "controlled process serum replacement" (CPSR-1). Compounds were added from ethanolic stock solutions to produce final ethanol concentrations of 0.1-0.3% v/v. Controls received the same amount of ethanol. Aminotriazole was added in an aqueous solution. Slices of rat testis (25 µm; 25-50 mg wet weight) were incubated under the same conditions in a shaking water bath (37°C). For isotopomer spectral analysis (ISA) of lathosterol, 1-^13C-acetate was added in an aqueous solution to a final concentration of 1 mM.
(§1) Cells were washed three times with ice cold PBS (pH 7.4) (once with 2 mg/ml BSA and twice with PBS alone). Epicoprostanol (1 µg in 50 µl of hexane) was added as internal standard to each sample. Sterols were extracted in hexane/isopropanol (3:2 v/v; two times with 4 ml). After drying under nitrogen and alkaline hydrolysis (1 N NaOH in 80% ethanol, 1.5 h at 70°C), the sterols were extracted with cyclohexane (two times with 3 ml). After drying under nitrogen, sterols were converted to their trimethylsilyl (TMS) derivatives by adding 100 µl bis(trimethylsilyl)trifluoracetamide (Pierce)/n-decane (1:1; v/v) and heating for 1 h at 70°C in a conical glass tube. This solution (1-2 µl) was used for gas-chromatography/mass-spectrometry (GC/MS). Rat testes (0.05-0.15 g) were homogenized manually, and lipids were extracted in hexane/isopropanol (3:2 v/v; two times with 4 ml). The extracts were deproteinized with acetone (3 ml) and processed as described above. The observed sterol levels in testis were normalized to correspond to 0.1 g of tissue (wet weight).
(§2) Gas-chromatography was done in the splitless mode with temperature programming as follows: 150°C for 1 min, followed by 20°C/min up to 260°C and 10°C/min up to 280°C (hold for 15 min). Mass spectral data were collected either in the full-scan mode (m/z 50-550) or by selective ion monitoring (SIM). For SIM analyses the electron multiplier voltage was raised by 300 V after the elution of lathosterol to increase the sensitivity of detection for lanosterol, dihydrolanosterol, methylsterols, dimethylsterols and plant sterols. The internal standard epicoprostanol was monitored at m/z 370. […] Peak integration was performed manually, and sterols were quantified from SIM analyses against the internal standard. Unless stated otherwise, MAS amounts are given as a percentage of the control.

liver slices = test: Influence of bile acids on methylsterols and dimethylsterols in liver slices; format: cell-based; details: bile acids 160 µM for 9-h, n=2 for UDCA, CDCA, DCA, n=3 for CA and LCA, ratio to campesterol
Method: as §1, §2

[1] = Conc. 10 µM (combinations 10 + 10 µM), 12 h, n=2
[2] = aminotriazole 20000 µM, tamoxifen 1 µM, combination 20000 + 1 µM, incubation time not clearly stated

In the case of `CC(=O)[C@@]1(O)CC[C@H]2[C@@H]3CC=C4C[C@@H](O)CC[C@]4(C)[C@H]3CC[C@@]21C` [17α-OH-Pregnenolone, 17α-Hydroxy-pregnenolone], the “order of suppression of Δ24 reduction” value (Δ24-reductase) is reported as “pregnenolone > progesterone > 17α-OH-pregnenolone >> 17α-OH-progesterone”, the “Dienol (m/z 486)” value (HepG2 cells; [1]) is reported as 52 ± 6 % of control and the “Enol T-MAS (m/z 484)” value (HepG2 cells; [1]) is reported as 780 ± 57 % of control. The “Trienol FF-MAS (m/z 482)” value (HepG2 cells; [1]) was 242 ± 19 % of control and the “suppression of the Δ24 reduction step (accumulation of desmosterol)” value (HepG2 cells) was “strongly suppressed”.
With `Nc1nc[nH]n1` [Aminotriazole] the “Dienol (m/z 486)” value (HepG2 cells; [2]) was 725 ± 65 % of control, the “Enol T-MAS (m/z 484)” value (HepG2 cells; [2]) was 610 ± 20 % of control and the “Trienol FF-MAS (m/z 482)” value (HepG2 cells; [2]) was 229 ± 18 % of control.
For `C[C@H](CCC(=O)O)[C@H]1CC[C@H]2[C@@H]3[C@H](O)C[C@@H]4C[C@H](O)CC[C@]4(C)[C@H]3CC[C@]12C` [CDCA, Chenodeoxycholic acid], the “FF-MAS Dimethylst.-trien (482 m/z)” value (HepG2 cells) was 197 ± 10 % of control, the “Methylst.-dien (470 m/z)” value (HepG2 cells) was 187 ± 5 % of control and the “T-MAS Dimethylst.-dien (484 m/z)” value (HepG2 cells) was 234 ± 11 % of control. For the same compound, the “FF-MAS Dimethylst.-trien (482 m/z)” value (liver slices) was 128 % of control, the “Methylst.-dien (470 m/z)” value (liver slices) was 181 % of control and the “T-MAS Dimethylst.-dien (484 m/z)” value (liver slices) was 296 % of control.
`C[C@H](CCC(=O)O)[C@H]1CC[C@H]2[C@@H]3CC[C@@H]4C[C@H](O)CC[C@]4(C)[C@H]3C[C@H](O)[C@]12C` [DCA, Deoxycholic acid] was tested, and the “FF-MAS Dimethylst.-trien (482 m/z)” value (HepG2 cells) was 226 ± 17 % of control, the “Methylst.-dien (470 m/z)” value (HepG2 cells) was 211 ± 6 % of control and the “T-MAS Dimethylst.-dien (484 m/z)” value (HepG2 cells) was 320 ± 32 % of control. For the same compound, the “FF-MAS Dimethylst.-trien (482 m/z)” value (liver slices) was 103 % of control, the “Methylst.-dien (470 m/z)” value (liver slices) was 144 % of control and the “T-MAS Dimethylst.-dien (484 m/z)” value (liver slices) was 210 % of control.
In the case of `C[C@H](CCC(=O)O)[C@H]1CC[C@H]2[C@@H]3CC[C@@H]4C[C@H](O)CC[C@]4(C)[C@H]3CC[C@]12C` [LCA, Lithocholic acid], the “FF-MAS Dimethylst.-trien (482 m/z)” value (HepG2 cells) is reported as 453 ± 88 % of control, the “Methylst.-dien (470 m/z)” value (HepG2 cells) is reported as 459 ± 29 % of control and the “T-MAS Dimethylst.-dien (484 m/z)” value (HepG2 cells) is reported as 744 ± 155 % of control. The “FF-MAS Dimethylst.-trien (482 m/z)” value (liver slices) was 91 % of control, the “Methylst.-dien (470 m/z)” value (liver slices) was 67 % of control and the “T-MAS Dimethylst.-dien (484 m/z)” value (liver slices) was 172 % of control.
In the case of `CC/C(=C(\c1ccccc1)c1ccc(OCCN(C)C)cc1)c1ccccc1` [Tamoxifen], the “suppression of the Δ24 reduction step (accumulation of desmosterol)” value (HepG2 cells) is reported as “strongly suppressed”, the “Dienol (m/z 486)” value (HepG2 cells; [2]) is reported as 34 ± 3 % of control and the “Enol T-MAS (m/z 484)” value (HepG2 cells; [2]) is reported as 617 ± 47 % of control. For the same compound, the “Trienol FF-MAS (m/z 482)” value (HepG2 cells; [2]) was 297 ± 41 % of control.
For `C[C@H](CCC(=O)O)[C@H]1CC[C@H]2[C@@H]3[C@@H](O)C[C@@H]4C[C@H](O)CC[C@]4(C)[C@H]3CC[C@]12C` [UDCA, Ursodeoxycholic acid], the “FF-MAS Dimethylst.-trien (482 m/z)” value (HepG2 cells) was 309 ± 51 % of control, the “Methylst.-dien (470 m/z)” value (HepG2 cells) was 509 ± 19 % of control and the “T-MAS Dimethylst.-dien (484 m/z)” value (HepG2 cells) was 655 ± 84 % of control. For the same compound, the “FF-MAS Dimethylst.-trien (482 m/z)” value (liver slices) was 204 % of control, the “Methylst.-dien (470 m/z)” value (liver slices) was 235 % of control and the “T-MAS Dimethylst.-dien (484 m/z)” value (liver slices) was 633 % of control.
With `COc1ccc(CCN(C)CCCC(C#N)(c2ccc(OC)c(OC)c2)C(C)C)cc1OC` (centres unmarked) [Verapamil] the “Dienol (m/z 486)” value (HepG2 cells; [1]) was 18 ± 4 % of control, the “Enol T-MAS (m/z 484)” value (HepG2 cells; [1]) was 416 ± 79 % of control and the “Trienol FF-MAS (m/z 482)” value (HepG2 cells; [1]) was 498 ± 103 % of control.
`C[C@]12CCC(=O)C=C1CC[C@@H]1[C@@H]2CC[C@]2(C)C(=O)CC[C@@H]12` [androstenedione, 4-Androsten-3,17-dione] was tested, and the “changes in the cholesterol precursor pattern” value (“changes” for short) (HepG2 cells) was “only minor changes”.
`C[C@]12CC[C@H](O)CC1=CC[C@@H]1[C@@H]2CC[C@]2(C)C(=O)CC[C@@H]12` [dehydroepiandrosterone] was tested, and the “changes” value (HepG2 cells) was “only minor changes”.
`C[C@]12CC[C@H]3[C@@H](CCC4=CC(=O)CC[C@@]43C)[C@@H]1CC[C@@H]2O` [testosterone, Testosterone] was tested, and the “changes” value (HepG2 cells) was “only minor changes”.
In the case of `C[C@]12CC[C@@H]3c4ccc(O)cc4CC[C@H]3[C@@H]1CC[C@@H]2O` [β-estradiol, 17β-Estradiol], the “changes” value (HepG2 cells) is reported as “only minor changes” and the “effect on the accumulation of cholesterol precursors observed with progesterone alone” value (HepG2 cells; β-estradiol 10 µM in combination with progesterone 10 µM) is reported as “did not alter”.
Medroxyprogesterone was tested, and the “Dienol (m/z 486)” value (HepG2 cells; [1]) was 509 ± 50 % of control, the “Enol T-MAS (m/z 484)” value (HepG2 cells; [1]) was 1181 ± 90 % of control and the “Trienol FF-MAS (m/z 482)” value (HepG2 cells; [1]) was 227 ± 11 % of control.
